Results on nine compounds are retold here after patent US8846687B2, “Pyrazine compounds as PI3 kinase inhibitors” (Novartis AG, priority 2008, dated 2014).

In this assay the target is recombinant GST-p110γ (human PI 3-Kγ) (Homo sapiens, UniProt P48736). Briefly: PI 3-kinase gamma in vitro kinase assay (Scintillation Proximity Assay). A general note: In a scintillation proximity assay essentially only radioactivity close to the scintillant gives light.
Sequence of recombinant GST-p110γ (human PI 3-Kγ) (P48736 38-1102): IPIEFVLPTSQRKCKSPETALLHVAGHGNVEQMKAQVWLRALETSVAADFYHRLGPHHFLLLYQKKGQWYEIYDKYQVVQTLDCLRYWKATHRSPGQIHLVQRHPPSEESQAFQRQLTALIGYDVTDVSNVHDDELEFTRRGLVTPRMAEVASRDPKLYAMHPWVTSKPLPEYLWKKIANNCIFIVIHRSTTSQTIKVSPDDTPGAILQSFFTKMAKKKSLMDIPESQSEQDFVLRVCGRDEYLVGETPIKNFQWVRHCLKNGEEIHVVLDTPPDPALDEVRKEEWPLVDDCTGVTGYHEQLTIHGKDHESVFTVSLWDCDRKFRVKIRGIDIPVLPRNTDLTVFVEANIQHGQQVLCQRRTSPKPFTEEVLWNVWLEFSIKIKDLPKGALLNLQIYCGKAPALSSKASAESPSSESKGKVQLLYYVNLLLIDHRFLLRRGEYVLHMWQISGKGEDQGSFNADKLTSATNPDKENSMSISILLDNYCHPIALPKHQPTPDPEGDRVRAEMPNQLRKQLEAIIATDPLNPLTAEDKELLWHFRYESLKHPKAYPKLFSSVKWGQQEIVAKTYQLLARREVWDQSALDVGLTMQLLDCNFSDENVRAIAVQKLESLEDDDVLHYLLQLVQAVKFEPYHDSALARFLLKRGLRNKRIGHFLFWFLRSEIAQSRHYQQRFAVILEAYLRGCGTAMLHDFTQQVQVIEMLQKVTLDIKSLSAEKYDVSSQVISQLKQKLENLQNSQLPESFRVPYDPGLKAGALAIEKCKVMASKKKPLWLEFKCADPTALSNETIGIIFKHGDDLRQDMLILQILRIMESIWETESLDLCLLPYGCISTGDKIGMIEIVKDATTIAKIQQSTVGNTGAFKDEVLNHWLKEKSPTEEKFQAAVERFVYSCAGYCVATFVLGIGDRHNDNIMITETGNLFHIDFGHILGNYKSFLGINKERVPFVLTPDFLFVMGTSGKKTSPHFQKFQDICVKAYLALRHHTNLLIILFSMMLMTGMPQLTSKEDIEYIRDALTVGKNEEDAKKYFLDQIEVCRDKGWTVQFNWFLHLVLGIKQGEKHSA
Description: To express the recombinant protein, Sf9 (Spodoptera frugiperda 9) insect cells are routinely maintained at densities between 3×10^5 and 3×10^6 cells/ml in serum containing TNMFH medium (Sigma). Sf9 cells, at a density of 2×10^6 are infected with human GST-PI 3-KγΔ34 baculovirus at a multiplicity of infection (m.o.i.) of 1 for 72 hours. The infected cells are harvested by centrifugation at 1400 g for 4 minutes at 4° C. and the cell pellets are frozen at −80° C. […] Sf9 cells (1×10^9) are resuspended in 100 ml cold (4° C.) lysis buffer (50 mM Tris-HCl pH 7.5, 1% Triton X-100, 150 mM NaCl, 1 mM NaF, 2 mM DTT and protease inhibitors. Cells are incubated on ice for 30 minutes then centrifuged at 15000 g for 20 minutes at 4° C. Purification of the supernatant sample is carried out at 4° C. by affinity chromatography using SEPHAROSE™ agarose gel beads coupled to glutathione (from Amersham Pharmacia Biotech). A cell lysate/GST resin ratio of 50:1 is used. The GST resin is firstly pre-rinsed to remove ethanol preservative and then equilibrated with lysis buffer. Cell lysate (supernatant) is added (usually as 50 ml lysate to 1 ml GST resin in 50 ml tubes) and gently rotated on a mixer at 4° C. for 2-3 hours. The unbound flow through sample is collected by centrifugation at 1000 g for 5 minutes at 4° C. using a DENLEY™ centrifuge. The 1 ml GST resin containing bound material is transferred to a 15 ml FALCON™ centrifuge tube for subsequent washing and elution steps. Firstly a series of 3 cycles of washings (mixing by gentle inversion) is performed with 15 ml ice cold wash Buffer A (50 mM Tris-HCl pH 7.5, 1% Triton X-100, 2 mM DTT) interspersed with centrifugation at 1000 g for 5 minutes at 4° C. A final single wash step is performed with 15 ml ice cold wash Buffer B (50 mM Tris-HCl pH 7.5, 2 mM DTT) and then centrifuged at 1000 g for 5 minutes at 4° C. The washed GST resin is finally eluted with 4 cycles of 1 ml ice cold elution buffer (50 mM Tris-HCl pH 7.5, 10 mM reduced glutathione, 2 mM DTT, 150 mM NaCl, 1 mM NaF, 50% ethylene glycol and protease inhibitors) interspersed with centrifugation at 1000 g for 5 minutes at 4° C. Samples are aliquoted and stored at −20° C.
An in vitro kinase assay was established that measures the transfer of the terminal phosphate of adenosine triphosphate to phosphatidylinositol. The kinase reaction is performed in a white 96 well microtitre plate as a Scintillation Proximity Assay. Each well contains 10 μl test compound in 5% dimethylsulfoxide and 20 μl assay mix (40 mM Tris, 200 mM NaCl, 2 mM ethyleneglycol-aminoethyl-tetraacetic acid (EGTA), 15 μg/ml phosphatidylinositol, 12.5 μM adenosine triphosphate (ATP), 25 mM MgCl2, 0.1 μCi [^33P]ATP). The reaction is started by the addition of 20 μl of enzyme mix (40 mM Tris, 200 mM NaCl, 2 mM EGTA containing recombinant GST-p110γ).
As a reminder, the IC50 is the concentration at which inhibition is half-maximal. With `Nc1ncc(-c2cnc(N)c(C(=O)c3cccnc3)n2)cc1C(F)(F)F` [Example 1, [3-Amino-6-(6-amino-5-trifluoromethyl-pyridin-3-yl)-pyrazin-2-yl]-pyridiny-3-yl-methanone], the IC50 came to 33 nM.

As for `Nc1ncc(-c2ccc(Cl)c(S(=O)(=O)Nc3ccccc3)c2)nc1C(=O)c1cccnc1` [Example 13, 5-[5-Smino-6-(pyridine-3-carbonyl)-pyrazin-2-yl]-2-chloro-N-phenyl-benzenesulfonamide], the IC50 was found to be 12 nM.

For `Nc1ncc(-c2cncc(C(=O)N3CCOCC3)c2)nc1C(=O)c1cccnc1` [Example 28], the IC50 was found to be 373 nM.

For `Nc1ncc(-c2ccc3c(c2)OCO3)nc1C(=O)c1cccnc1` [Example 35, (3-Amino-6-benzo[1,3]dioxol-5-yl-pyrazin-2-yl)-pyridin-3-yl-methanone], the IC50 is 587 nM.

As to `Nc1ncc(-c2cccc(C(=O)O)c2)nc1C(=O)c1cccnc1` [Example 49, 3-[5-Amino-6-(pyridine-3-carbonyl)-pyrazin-2-yl]-benzoic acid], the IC50 was 362 nM.

Consider `Nc1cccc(-c2cnc(N)c(C(=O)c3cccnc3)n2)c1` [Example 51, [3-Amino-6-(3-amino-phenyl)-pyrazin-2-yl]-pyridin-3-yl-methanone], for which the IC50 worked out at 393 nM.

Turning to `Nc1ncc(-c2cc(C(F)(F)F)cc(S(N)(=O)=O)c2)nc1C(=O)c1cccnc1` [Example 67, 3-[5-Amino-6-(pyridine-3-carbonyl)-pyrazin-2-yl]-5-trifluoromethyl-benzenesulfonamide], the IC50 was determined as 431 nM.

`Nc1ncc(-c2cc(S(=O)(=O)N3CCOCC3)c(F)cc2F)nc1C(=O)c1cccnc1` [Example 74, {3-Amino-6-[2,4-difluoro-5-(morpholine-4-sulfonyl)-phenyl]-pyrazin-2-yl}-pyridin-3-yl-methanone]: the IC50 was found to be 125 nM.

For `Nc1ncc(-c2ccc(Cl)c(Cl)c2)nc1C(=O)c1ccc(CN2CCCCC2)cc1` [Example 86, [3-Amino-6-(3,4-dichloro-phenyl)-pyrazin-2-yl]-(4-piperidin-1-ylmethyl-phenyl)-methanone], the IC50 came to 753 nM.
